Positions of bridges follow the written chain, without caps; N, C: chain ends. Non-standard residues stand in square brackets, D forms with d. Residues, ends and D or L forms follow the SMILES beside them. *: point of attachment. Ileψ(thiazoline)Cys = CC[C@H](C)[C@H](N)C1=N[C@H](C(=O)*)CS1; dOrn = NCCC[C@@H](N)C(=O)O
System: Culture A80509
Assay: resistance of culture A80509 to antibiotics, sensitivity discs on agar

CC[C@H](C)[C@H](N)C1=N[C@H](C(=O)N[C@@H](CC(C)C)C(=O)N[C@H](CCC(=O)O)C(=O)N[C@H](C(=O)N[C@H]2CCCCNC(=O)[C@H](CC(N)=O)NC(=O)[C@@H](CC(=O)O)NC(=O)[C@H](Cc3cnc[nH]3)NC(=O)[C@@H](Cc3ccccc3)NC(=O)[C@H]([C@@H](C)CC)NC(=O)[C@@H](CCCN)NC2=O)[C@@H](C)CC)CS1 [bacitracin] ({Ileψ(thiazoline)Cys}-L[dE]IK[dOrn]I[dF]H[dD]N; lactam 4-C)
resistance/sensitivity of culture A80509 (disc 10 units): sensitive

CC(=O)OCC1=C(C(=O)O)N2C(=O)[C@@H](NC(=O)Cc3cccs3)[C@H]2SC1 [cephalothin]
resistance/sensitivity of culture A80509 (disc 30 μg): resistant

CCC[C@@H]1C[C@@H](C(=O)N[C@@H]([C@H]2O[C@H](SC)[C@H](O)[C@@H](O)[C@H]2O)[C@@H](C)O)N(C)C1 [lincomycin]
resistance/sensitivity of culture A80509 (disc 2 μg): resistant

CO[C@H]1C[C@H](O[C@H]2[C@H](C)[C@@H](O[C@@H]3O[C@H](C)C[C@H](N(C)C)[C@H]3O)[C@@H](C)C[C@@]3(CO3)C(=O)[C@H](C)[C@@H](O)[C@@H](C)[C@@H](C)OC(=O)[C@@H]2C)O[C@@H](C)[C@@H]1O [oleandomycin]
resistance/sensitivity of culture A80509 (disc 15 μg): resistant

CC1(C)S[C@@H]2[C@H](NC(=O)Cc3ccccc3)C(=O)N2[C@H]1C(=O)O [penicillin G]
resistance/sensitivity of culture A80509 (disc 10 units): resistant

CO[C@H]1/C=C/O[C@@]2(C)Oc3c(C)c(O)c4c(O)c(c(/C=N/N5CCN(C)CC5)c(O)c4c3C2=O)NC(=O)/C(C)=C\C=C\[C@H](C)[C@H](O)[C@@H](C)[C@@H](O)[C@@H](C)[C@H](OC(C)=O)[C@@H]1C [rifampin]
resistance/sensitivity of culture A80509 (disc 5 μg): sensitive

[H]/N=C(/N)N[C@H]1[C@H](O)[C@@H](O)[C@H](O[C@@H]2O[C@@H](C)[C@](O)(C=O)[C@H]2O[C@@H]2O[C@@H](CO)[C@H](O)[C@@H](O)[C@@H]2NC)[C@@H](N/C(N)=N\[H])[C@@H]1O [streptomycin]
resistance/sensitivity of culture A80509 (disc 10 μg): sensitive

CN(C)C1C(=O)C(C(N)=O)=C(O)C2(O)C(=O)C3=C(O)c4c(O)cccc4C(C)(O)C3CC12 (stereo not drawn) [tetracycline]
resistance/sensitivity of culture A80509 (disc 30 μg): sensitive

NC[C@H]1O[C@H](O[C@H]2[C@H](O)[C@@H](O[C@H]3O[C@H](CO)[C@@H](O)[C@H](N)[C@H]3O)[C@H](N)C[C@@H]2N)[C@H](N)C[C@@H]1O [tobramycin]
resistance/sensitivity of culture A80509 (disc 10 μg): sensitive

CN[C@H](CC(C)C)C(=O)N[C@H]1C(=O)N[C@@H](CC(N)=O)C(=O)N[C@H]2C(=O)N[C@H]3C(=O)N[C@H](C(=O)N[C@H](C(=O)O)c4cc(O)cc(O)c4-c4cc3ccc4O)[C@H](O)c3ccc(c(Cl)c3)Oc3cc2cc(c3O[C@@H]2O[C@H](CO)[C@@H](O)[C@H](O)[C@H]2O[C@H]2C[C@](C)(N)[C@H](O)[C@H](C)O2)Oc2ccc(cc2Cl)[C@H]1O [vancomycin]
resistance/sensitivity of culture A80509 (disc 30 μg): sensitive

gentamicin
resistance/sensitivity of culture A80509 (disc 10 μg): sensitive

neomycin
resistance/sensitivity of culture A80509 (disc 30 μg): sensitive

Reference: patent US4885170A, “Antibiotic A80509” (Eli Lilly and Company, priority 1988, dated 1989)
